# US20090093470A1, “PHOTODYNAMIC THERAPY PROCESS AND PHOTOSENSITIZER COMPOSITIONS THEREFOR” (Ondine International, Ltd., priority 2007, published 2009)
# Tested on: E. Coli (ATCC 25922)
# Assay: Photodynamic disinfection kill models (planktonic culture and biofilm)
# Assay type: cell-based
# Conditions: 670 nm laser illumination for 60 seconds
# Protocol: A 0.01% (v/v) aqueous solution of methylene blue was reduced substantially entirely to the reduced state using ascorbic acid. […] The formulation was then tested for antibacterial efficacy against E. Coli (ATCC® 25922™) using two established photodynamic disinfection kill models (planktonic culture and biofilm) with a 670 nm laser energy source to provide desired illumination for 60 seconds. […] FIG. 2 is a bar graph showing the eradication of E. coli expressed in log^10 reduction in bacterial counts for the various samples used in the experiment. […]
smiles,measurement,value
O=C1O[C@H]([C@@H](O)CO)C(O)=C1O [ascorbic acid],reduction in bacterial counts (viable count) of E. coli,did not itself demonstrate any antibacterial effects
